From patent US9745339B2 (GRAFFINITY PHARMACEUTICALS GMBH, priority 2012, dated 2017)

Assays:
Bevacizumab [1] = target: T1, Bevacizumab (Homo sapiens, UniProt P01857); assay: Microtiter plate chromatography of resins: binding and elution of Bevacizumab; conditions: for Bevacizumab Bound: fraction of injected protein bound, 0.5 mg/ml IgG in PBS pH 7.3, ligand immobilized on SEPHAROSE 4 FF; for Bevacizumab Yield: mass eluted (glycine pH 2.5) / mass injected
T1 construct: 0.5 mg/ml IgG in PBS pH 7.3; ligand immobilized on SEPHAR; Bevacizumab Yield; other: mass eluted (glycine pH 2.5) / mass injected; kd (dissociation constant, Langmuir isotherm); other: Bevacizumab 0.05-5 mg/ml in PBS pH 7.3, 25° C., at least 3 h; qm (maximum capacity); other: mg Bevacizumab per ml of resin; Langmuir isotherm; t0; fused on or other part: Humanized anti-VEGF-A VH domain joined N-terminally to the IGHG1 constant region (engineered, no UniProt entry)
In short: (§1)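 About 30 μl packed resin columns loaded with 3.3 cv IgG at 0.5 mg ml^−1 in PBS or undiluted HCP, washed with 5 cv PBS, eluted with 5 cv glycine pH 2.5. Protein in fractions by Bradford. Bound fraction = (injected − flowthrough)/injected; yield = eluted/injected; selectivity = Bevacizumab bound fraction / HCP bound fraction, truncated beyond 10.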

Tocilizumab = assay: Microtiter plate chromatography of resins: binding and elution of Tocilizumab; conditions: fraction of injected protein bound; 0.5 mg/ml IgG in PBS pH 7.3
In short: (§2)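 About 30 μl resin columns loaded with 3.3 cv IgG at 0.5 mg ml^−1 in PBS (or undiluted HCP), washed with 5 cv PBS, eluted with 5 cv glycine pH 2.5. Fractions quantified by Bradford; bound fraction = (mi−mft)/mi, yield = me/mi.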

Palivizumab = assay: Microtiter plate chromatography of resins: binding and elution of Palivizumab; conditions: fraction of injected protein bound; 0.5 mg/ml IgG in PBS pH 7.3
In short: as §2

Cetuximab = assay: Microtiter plate chromatography of resins: binding and elution of Cetuximab; conditions: fraction of injected protein bound; 0.5 mg/ml IgG in PBS pH 7.3
In short: as §2

[2] = tested on: poly-IgG from human serum (h-poly-IgG); assay: Microtiter plate chromatography of resins: binding and elution of human poly-IgG; conditions: fraction of injected protein bound; 0.5 mg/ml IgG in PBS pH 7.3
In short: as §2

host cell proteins (HCP) = assay: Microtiter plate chromatography of resins: binding of host cell proteins; set-up: species or system CHO cell culture; conditions: fraction of injected undiluted host cell proteins bound
In short: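 Undiluted HCP-containing flowthrough from protein A chromatography of CHO serum-free culture was loaded onto ~30 µl packed resin columns in microtiter-plate format. Columns were washed with 5 cv PBS and eluted with glycine pH 2.5, and fractions were quantified by Bradford. Bound fraction = (injected − flowthrough mass)/injected mass.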

Bevacizumab [3] = target: T1, Bevacizumab; assay: Langmuir isotherms by batch adsorption; assay type: binding; conditions: for qm (maximum capacity): mg Bevacizumab per ml of resin, Langmuir isotherm; for Kd: Bevacizumab 0.05-5 mg/ml in PBS pH 7.3, 25° C., at least 3 h, read-out: kd (dissociation constant, Langmuir isotherm) (converted)
Protocol: Experiments were performed with Bevacizumab as antibody. Parameters of Langmuir isotherms for purified antibody were determined by batch adsorption experiments in 96-well microtiter plates. In each well, 10 μl of sorbent slurry (50% v/v) were mixed with 100 μl of protein solution. Initial concentrations varied from 0.05-5 mg/ml in phosphate-buffered saline (0.15 M NaCl, 20 mM phosphate buffer, pH 7.3; PBS). Reactions were agitated vigorously at 25° C. for at least 3 h. Afterwards, antibody concentration in the supernatants were measured by Bradford assay. Data was evaluated by direct fitting of the values with the Langmuir isotherm equation (1).
Parameters of Langmuir isotherms, i.e. dissociation constants Kd and maximum capacities qm, were determined from the measured concentrations in the supernatants. Parameters were estimated by numerical fitting of the model equation derived by Chase (1)

Bevacizumab [4] = target: T1, Bevacizumab; assay: Uptake kinetics by batch adsorption (time-scale of binding); conditions: time after which 80% of equilibrium saturation occurred; 0.75 mg/ml Bevacizumab in PBS, 25° C.
Protocol: Uptake kinetics was investigated similarly by batch adsorption in 96-well filter plates. Again, 10 μl of sorbent slurry (50% v/v) were mixed with 100 μl of protein solution. […] Reactions were agitated vigorously at 25° C. for up to 80 min. Supernatants were separated rapidly by spinning through filters after 2.5, 5, 10, 20, 40 and 80 minutes and sampled for analysis. Concentrations of the antibody were analyzed by Bradford assay.
For determination of t0.8, measured concentrations in the supernatant were interpolated by fitting of double-exponentials and values of t0.8 were read out from graphs (2).

[5] = Alkaline stability of ligands in 0.5 M sodium hydroxide; assay type: physicochemical; conditions: 25° C., 8 days, hydrolysis monitored by LC-MS, read-out: t0.5 (half-life) (converted)
Protocol: A subset of ligands from Example 1 was tested for its alkaline stability. Ligands were treated with 0.5 M sodium hydroxide at 25° C. for 8 days. Hydrolysis was monitored by LC-MS analysis.

Bevacizumab [6] = assay: Microtiter plate chromatography of resins: binding and elution of Bevacizumab; conditions: fraction of bound Bevacizumab divided by fraction of bound HCP; truncated for values beyond 10
In short: as §1

Structure (SMILES) | Bevacizumab Bound (Bevacizumab [1]) [%] | Bevacizumab Yield (Bevacizumab [1]) [%] | Tocilizumab Bound (Tocilizumab) [%] | Palivizumab Bound (Palivizumab) [%] | Cetuximab Bound (Cetuximab) [%] | h-poly-IgG Bound [2] [%] | HCP Bound (host cell proteins (HCP)) [%] | qm (maximum capacity) (Bevacizumab [3]) [mg/mL] | t0.8 (time-scale of binding) (Bevacizumab [4]) [min] | half-life [5] [days] | Kd (Bevacizumab [3]) [µM] | Selectivity (Bevacizumab [6])
Cc1nc2cc(C(=O)Nc3nnc(-c4ccco4)s3)ccc2n1CCCN [Ligand L39, 1-(3-Amino-1-propyl)-2-methylbenzimidazole-5-carboxylic acid N-[5-(2-furyl)-1,3,4-thiadiazol-2-yl] amide] | 100 | 85 | 100 | 100 | 100 | 100 | 10 | 49 | 7.8 | > 41.6 | – | –
Cc1nc2cc(C(=O)Nc3nc(-c4ccccn4)cs3)ccc2n1CCCN [Ligand L42, 1-(3-Amino-1-propyl)-2-methylbenzimidazole-5-carboxylic acid N-[4-(2-pyridyl)thiazol-2-yl] amide] | 100 | 98 | 100 | 97 | 100 | 100 | 13.5 | 45 | 7.6 | > 41.6 | 318 | –
NCCCn1c(=O)[nH]c2cc(C(=O)Nc3nnc(-c4ccco4)s3)ccc21 [Ligand L24, 1-(3-Amino-1-propyl)-2-oxo-2,3-dihydrobenzimidazole-5-carboxylic acid N-[5-(2-furyl)-1,3,4-thiadiazol-2-yl] amide] | 100 | 101 | 100 | 100 | 100 | 100 | 12 | 42 | 9.4 | > 41.6 | 583 | –
COc1ccc(NC(=O)c2nn(CCCN)c3ccccc23)cc1C(N)=O [Ligand L04, 1-(3-Amino-1-propyl)indazole-3-carboxylic acid N-(3-carbamoyl-4-methoxyphenyl) amide] | 100 | 98 | 100 | 85 | 100 | 100 | 28 | – | – | > 41.6 | – | 3.6
COc1nc2cc(C(=O)Nc3nnc(-c4ccco4)s3)ccc2n1CCCN [Ligand L45, 1-(3-Amino-1-propyl)-2-methoxybenzimidazole-5-carboxylic acid N-[5-(2-furyl)-1,3,4-thiadiazol-2-yl] amide] | 100 | 93 | 100 | 100 | 100 | 100 | 15 | – | – | > 41.6 | – | 6.7
